# Experimental data taken from patent publication US11447460B2, “Compounds and compositions for treating conditions associated with NLRP activity” (Novartis AG, priority 2016, dated 2022).
# Where two headings read alike, the source gives them in different places.
# Tested on: IL-1β production in PMA-differentiated THP-1 cells
# Assay: IL-1β production in PMA-differentiated THP-1 cells stimulated with gramicidin (hTHP-1 assay, 2% bovine serum; Bioassays 1 and 2)
# Assay type: cell-based, human
# Conditions: hTHP-1 assay containing 2% bovine serum, read-out: Average IC50 of compounds in hTHP-1 assay
# Procedure: IL-1β Production in PMA-Differentiated THP-1 Cells Stimulated with Gramicidin.
# Cell culture-THP-1 cells were purchased from the American Type Culture Collection and sub-cultured according to instructions from the supplier. Prior to experiments, cells were cultured in RPMI 1640 containing 10% heat inactivated FBS, penicillin (100 units/ml) and streptomycin (100 μg/ml), and maintained in log phase prior to experimental setup. Prior to the experiment THP-1 were treated with PMA (Phorbol 12-myristate 13-acetate) (10 μg/ml) for 24 hours. The day of the experiment the media was removed and attaching cells were treated with trypsin for 2 minutes, cells were then collected, washed with PBS (phosphate buffer saline), spin down, resuspended in 2% heat inactivated FBS with RPMI at a concentration of 1×10^6 cells/ml, and 100 ul was plated in a 96 well plate. Cells were incubated with compounds for 1 hours and then stimulated with Gramicidin (5 μM) (Enzo) for 2 hours. Cell free supernatant was collected and the production of IL-1β was evaluated by ELISA. Compounds were dissolved in dimethyl sulfoxide (DMSO) and added to the culture medium to achieve desired concentration (e.g. 100, 30, 10, 3, 1, 0.3 or 0.1 μM). A vehicle only control was run concurrently with each experiment. Final DMSO concentration was 1%.
# THP-1 cells were purchased from the American Type Culture Collection and sub-cultured according to instructions from the supplier. Prior to experiments, cells were cultured in complete RPMI 1640 (containing 10% heat inactivated FBS, penicillin (100 units/ml) and streptomycin (100 μg/ml)), and maintained in log phase prior to experimental setup. Prior to the experiment THP-1 were treated with PMA (Phorbol 12-myristate 13-acetate) (20 ng/ml) for 16-18 hours. On the day of the experiment the media was removed and adherent cells were detached with trypsin for 5 minutes. Cells were then harvested, washed with complete RPMI 1640, spun down, resuspended in RPMI 1640 (containing 2% heat inactivated FBS, penicillin (100 units/ml) and streptomycin (100 μg/ml). The cells were plated in a 384-well plate at a density of 50,000 cells/well (final assay volume 50 μl). Compounds were dissolved in dimethyl sulfoxide (DMSO) and added to the culture medium to achieve desired concentration (e.g. 100, 33, 11, 3.7, 1.2, 0.41, 0.14, 0.046, 0.015, 0.0051, 0.0017 μM). Cells were incubated with compounds for 1 hour and then stimulated with gramicidin (5 μM) (Enzo) for 2 hours. Cell free supernatant was collected and the production of IL-10 was evaluated by HTRF (cisbio). A vehicle only control was run concurrently with each experiment. Final DMSO concentration was 0.38%.
# Compounds tested with protocols 1 and 2 provided IC50 values that are within the variability of the assay.
# Tables 12 and 13 show the biological activity of compounds in hTHP-1 assay containing 2% bovine serum: <1 μM=“++++”; ≥1 and <5 μM=“+++”; ≥5 and <15 μM=“++”; ≥15 and <60 μM=“+”.
# [1] = Homo sapiens, THP-1, Table 12, by Example #
Compound,IC50 [1] [µM],other results
"CC(C)c1cc(F)cc(C(C)C)c1CC(=O)NS(=O)(=O)c1cccc(S(C)(=O)=O)c1 [Example 59, 2-(4-fluoro-2,6-diisopropylphenyl)-N-(3-(methylsulfonyl)phenylsulfonyl)acetamide]",15 to 60,
"CC(C)c1cc(C#N)cc(C(C)C)c1CC(=O)NS(=O)(=O)c1cc(C(C)(C)O)cc(C(C)(C)O)c1 [Example 31, N-(3,5-bis(2-hydroxypropan-2-yl)phenylsulfonyl)-2-(4-cyano-2,6-diisopropylphenyl)acetamide]",5 to 15,
"CC(C)c1cc(C#N)cc(C(C)C)c1CC(=O)NS(=O)(=O)c1ccc(C(C)(C)O)cc1 [Example 35, 2-(4-cyano-2,6-diisopropylphenyl)-N-(4-(2-hydroxypropan-2-yl)phenylsulfonyl)acetamide]",1 to 5,
CC(C)c1cc(F)cc(C(C)C)c1CC(=O)NS(=O)(=O)c1ncc(CN(C)C)s1 [Compound 213],,"IC50 (Homo sapiens, THP-1, Table 13, by Final Target Number): 5 to 15 µM"
"CC(C)(O)c1cnc(S(=O)(=O)NC(=O)Cc2c3c(c(F)c4c2CCC4)CCC3)s1 [Example 69, 2-(8-fluoro-1,2,3,5,6,7-hexahydros-indacen-4-yl)-N-(5-(2-hydroxypropan-2-yl)thiazol-2-ylsulfonyl)acetamide]",15 to 60,
"CC(C)c1ccc(F)c(C(C)C)c1CC(=O)NS(=O)(=O)c1cc(C(C)(C)O)cs1 [Example 11, 2-(3-fluoro-2,6-diisopropylphenyl)-N-(4-(2-hydroxypropan-2-yl)thiophen-2-ylsulfonyl)acetamide]",< 1,
"COC(C)(C)c1cnc(S(=O)(=O)NC(=O)Cc2c(C(C)C)cc(F)cc2C(C)C)s1 [Example 73, 2-(4-fluoro-2,6-diisopropylphenyl)-N-(5-(2-methoxypropan-2-yl)thiazol-2-ylsulfonyl)acetamide]",1 to 5,
"CC(C)c1cc(OC(F)(F)F)cc(C(C)C)c1CC(=O)NS(=O)(=O)c1ncc(C(C)(C)O)s1 [Example 85, 2-(2,6-diisopropyl-4-(trifluoromethoxy)phenyl)-N-(5-(2-hydroxypropan-2-yl)thiazol-2-ylsulfonyl)acetamide]",1 to 5,
"CC(C)c1ccc(F)c(C(C)C)c1CC(=O)NS(=O)(=O)c1cccc(C(C)(C)O)c1 [Example 42, 2-(3-fluoro-2,6-diisopropylphenyl)-N-(3-(2-hydroxypropan-2-yl)phenylsulfonyl)acetamide]",5 to 15,
"CC(C)c1c(F)c(Cl)c(F)c(C(C)C)c1CC(=O)NS(=O)(=O)c1ncc(C(C)(C)O)s1 [Example 83, 2-(4-chloro-3,5-difluoro-2,6-diisopropylphenyl)-N-(5-(2-hydroxypropan-2-yl)thiazol-2-ylsulfonyl)acetamide]",< 1,
"Cc1c(C(C)(C)O)csc1S(=O)(=O)NC(=O)Cc1c(C(C)C)cc(F)cc1C(C)C [Example 19, 2-(4-fluoro-2,6-diisopropylphenyl)-N-(4-(2-hydroxypropan-2-yl)-3-methylthiophen-2-ylsulfonyl)acetamide]",1 to 5,
"CC(C)c1cc(F)cc(C(C)C)c1CC(=O)NS(=O)(=O)c1cc(C2(O)CC2)cs1 [Example 15, 2-(4-fluoro-2,6-diisopropylphenyl)-N-(4-(1-hydroxycyclopropyl)thiophen-2-ylsulfonyl)acetamide]",1 to 5,
"CC(C)c1cccc(C(C)C)c1CC(=O)NS(=O)(=O)c1ncc(C(C)(C)O)s1 [Example 2, 2-(2,6-Diisopropylphenyl)-N-(5-(2-hydroxypropan-2-yl)thiazol-2-ylsulfonyl)acetamide]",1 to 5,
"CC(C)c1cc(F)cc(C(C)C)c1CC(=O)NS(=O)(=O)c1cc2ccccc2o1 [Example 41, N-(benzofuran-2-ylsulfonyl)-2-(4-fluoro-2,6-diisopropylphenyl)acetamide]",5 to 15,
"CC(C)c1cc(C#N)cc(C(C)C)c1CC(=O)NS(=O)(=O)c1cc(Cl)cc(C(C)(C)O)c1 [Example 28, N-(3-chloro-5-(2-hydroxypropan-2-yl)phenylsulfonyl)-2-(4-cyano-2,6-diisopropylphenyl)acetamide]",1 to 5,
"CC(C)c1ccc(F)c(C(C)C)c1CC(=O)NS(=O)(=O)c1ncc(C(C)(C)O)s1 [Example 71, 2-(3-fluoro-2,6-diisopropylphenyl)-N-(5-(2-hydroxypropan-2-yl)thiazol-2-ylsulfonyl)acetamide]",1 to 5,
"CC(C)c1cc(F)cc(C(C)C)c1CC(=O)NS(=O)(=O)c1cccc(C(C)(C)O)c1F [Example 50, 2-(4-fluoro-2,6-diisopropylphenyl)-N-(2-fluoro-3-(2-hydroxypropan-2-yl)phenylsulfonyl)acetamide]",1 to 5,
"CC(C)c1cc(C#N)cc(C(C)C)c1CC(=O)NS(=O)(=O)c1cc(-c2ccccc2)cc(C(C)(C)O)c1 [Example 33, 2-(4-cyano-2,6-diisopropylphenyl)-N-(5-(2-hydroxypropan-2-yl)biphenyl-3-ylsulfonyl)acetamide]",5 to 15,
"CC(C)c1cccc(C(C)C)c1CC(=O)NS(=O)(=O)c1cc(-c2ccncc2)cc(C(C)(C)O)c1 [Example 22, 2-(2,6-diisopropylphenyl)-N-(3-(2-hydroxypropan-2-yl)-5-(pyridin-4-yl)phenylsulfonyl)acetamide]",15 to 60,
"CC(C)c1cc(C(F)(F)F)cc(C(C)C)c1CC(=O)NS(=O)(=O)c1ncc(C(C)(C)O)s1 [Example 72, 2-(2,6-diisopropyl-4-(trifluoromethyl)phenyl)-N-(5-(2-hydroxypropan-2-yl)thiazol-2-ylsulfonyl)acetamide]",1 to 5,
"CC(C)c1c(F)c(Cl)c(F)c(C(C)C)c1CC(=O)NS(=O)(=O)c1cc(C(C)(C)O)co1 [Example 20, 2-(4-chloro-3,5-difluoro-2,6-diisopropylphenyl)-N-(4-(2-hydroxypropan-2-yl)furan-2-ylsulfonyl)acetamide]",< 1,
"CC(C)c1cc(C#N)cc(C(C)C)c1CC(=O)NS(=O)(=O)c1cc(C2(O)CC2)cs1 [Example 16, 2-(4-cyano-2,6-diisopropylphenyl)-N-(4-(1-hydroxycyclopropyl)thiophen-2-ylsulfonyl)acetamide]",< 1,
"Cc1ccc(S(=O)(=O)NC(=O)Cc2c(C(C)C)cc(F)cc2C(C)C)cc1C(C)(C)O [Example 45, 2-(4-fluoro-2,6-diisopropylphenyl)-N-(3-(2-hydroxypropan-2-yl)-4-methylphenylsulfonyl)acetamide]",1 to 5,
"CC(C)c1cccc(C2CC2)c1CC(=O)NS(=O)(=O)c1ncc(C(C)(C)O)s1 [Example 80, 2-(2-cyclopropyl-6-isopropylphenyl)-N-(5-(2-hydroxypropan-2-yl)thiazol-2-ylsulfonyl)acetamide]",5 to 15,
"CC(C)(O)c1csc(S(=O)(=O)NC(=O)Cc2c3c(cc4c2CCC4)CCC3)c1 [Example 7, 2-(1,2,3,5,6,7-hexahydro-sindacen-4-yl)-N-(4-(2-hydroxypropan-2-yl)thiophen-2-ylsulfonyl)acetamide]",,"IC50 (Table 12, by Example #): 5 to 15 µM"
"CC(C)(O)c1cnc(S(=O)(=O)NC(=O)Cc2c3c(cc4c2CCC4)CCC3)s1 [Example 3, 2-(1,2,3,5,6,7-Hexahydros-indacen-4-yl)-N-(5-(2-hydroxypropan-2-yl)thiazol-2-ylsulfonyl)acetamide]",15 to 60,
"CC(C)c1cc(F)cc(C(C)C)c1CC(=O)NS(=O)(=O)c1cc(C(C)(C)O)ccc1F [Example 52, 2-(4-fluoro-2,6-diisopropylphenyl)-N-(2-fluoro-5-(2-hydroxypropan-2-yl)phenylsulfonyl)acetamide]",1 to 5,
"COC(C)(C)c1cnc(S(=O)(=O)NC(=O)Cc2c(C(C)C)cc(C#N)cc2C(C)C)s1 [Example 74, 2-(4-cyano-2,6-diisopropylphenyl)-N-(5-(2-methoxypropan-2-yl)thiazol-2-ylsulfonyl)acetamide]",5 to 15,
"CC(C)c1cc(F)cc(C(C)C)c1CC(=O)NS(=O)(=O)c1ccc(C(C)(C)O)s1 [Example 13, 2-(4-fluoro-2,6-diisopropylphenyl)-N-(5-(2-hydroxypropan-2-yl)thiophen-2-ylsulfonyl)acetamide]",1 to 5,
